Tested on: patients with PoPH
Assay: PORTICO safety: vital signs, body weight, BMI
Details: in vivo
Text: For the evaluation of treatment-emergent safety endpoints in the DB phase, the observation period for each individual subject started at the time of the first administration of macitentan or placebo and ended with the start of OL treatment or 30 days after DB treatment discontinuation (whichever occurred first). The safety variables listed below apply to the DB treatment-emergent period and the macitentan treatment-emergent period. The DB treatment-emergent period was defined as the period from the DB treatment start date up to the EOT-DB+30 days or to the EOT-DB for patients entering OL. The macitentan treatment-emergent period was defined as the period from the first intake of macitentan up to end of macitentan treatment (EOMT)+30 days. EOMT was defined as EOT-DB (for patient who received macitentan only in the DB period) or EOT-OL when applicable. […]

CCCNS(=O)(=O)Nc1ncnc(OCCOc2ncc(Br)cn2)c1-c1ccc(Br)cc1 [macitentan, N-[5-(4-Bromophenyl)-6-[2-[(5-bromo-2-pyrimidinyl)oxy]ethoxy]-4-pyrimidinyl]-N′-propylsulfamide]
Effect on vital signs, body weight or BMI: no indication of any notable effect
